In this assay the target is DNA gyrase subunit A/B (Staphylococcus aureus, UniProt P0A0K8+P20831). The assay can be described thus: Inhibition of Staphylococcus aureus DNA gyrase supercoiling activity.
Chain of DNA gyrase subunit A/B (P20831 whole entry): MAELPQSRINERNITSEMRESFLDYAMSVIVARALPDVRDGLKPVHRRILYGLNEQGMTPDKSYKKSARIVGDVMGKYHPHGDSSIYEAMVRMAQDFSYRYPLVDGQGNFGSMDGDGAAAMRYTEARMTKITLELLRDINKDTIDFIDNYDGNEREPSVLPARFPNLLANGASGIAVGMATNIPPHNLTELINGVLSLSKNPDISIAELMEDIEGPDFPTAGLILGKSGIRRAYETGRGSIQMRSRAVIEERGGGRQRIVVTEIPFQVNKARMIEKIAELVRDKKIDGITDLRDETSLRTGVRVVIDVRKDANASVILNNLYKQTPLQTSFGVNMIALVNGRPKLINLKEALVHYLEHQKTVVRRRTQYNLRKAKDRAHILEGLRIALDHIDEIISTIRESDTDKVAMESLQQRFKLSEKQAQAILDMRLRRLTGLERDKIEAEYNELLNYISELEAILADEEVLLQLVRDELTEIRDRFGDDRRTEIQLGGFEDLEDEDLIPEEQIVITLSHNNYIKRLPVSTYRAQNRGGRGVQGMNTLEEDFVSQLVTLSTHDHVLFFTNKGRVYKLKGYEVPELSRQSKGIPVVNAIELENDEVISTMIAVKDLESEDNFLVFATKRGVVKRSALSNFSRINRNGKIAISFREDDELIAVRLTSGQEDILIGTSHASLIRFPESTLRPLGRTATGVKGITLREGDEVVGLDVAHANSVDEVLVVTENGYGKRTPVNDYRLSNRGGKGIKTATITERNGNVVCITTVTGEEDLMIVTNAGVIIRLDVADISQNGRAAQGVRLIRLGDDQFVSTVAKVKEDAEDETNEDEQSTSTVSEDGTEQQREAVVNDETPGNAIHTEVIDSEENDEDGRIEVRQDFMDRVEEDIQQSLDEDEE
Chain of DNA gyrase subunit A/B (P0A0K8 whole entry): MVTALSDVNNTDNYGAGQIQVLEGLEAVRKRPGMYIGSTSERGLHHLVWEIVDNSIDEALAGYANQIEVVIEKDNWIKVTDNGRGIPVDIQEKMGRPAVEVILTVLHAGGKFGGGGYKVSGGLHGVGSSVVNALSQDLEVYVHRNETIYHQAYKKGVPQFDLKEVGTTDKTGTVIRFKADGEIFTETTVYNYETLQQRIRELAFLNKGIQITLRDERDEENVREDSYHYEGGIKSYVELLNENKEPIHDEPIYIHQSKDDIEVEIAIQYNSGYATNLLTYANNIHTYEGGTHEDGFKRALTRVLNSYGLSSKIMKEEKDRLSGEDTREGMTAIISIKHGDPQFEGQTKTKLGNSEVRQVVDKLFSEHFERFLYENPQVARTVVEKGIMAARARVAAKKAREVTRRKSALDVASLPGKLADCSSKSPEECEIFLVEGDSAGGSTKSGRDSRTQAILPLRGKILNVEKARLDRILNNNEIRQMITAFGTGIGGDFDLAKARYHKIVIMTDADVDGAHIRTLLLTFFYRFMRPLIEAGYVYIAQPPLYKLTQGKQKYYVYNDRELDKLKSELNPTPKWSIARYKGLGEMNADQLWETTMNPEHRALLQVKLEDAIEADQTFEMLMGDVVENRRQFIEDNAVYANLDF

`CCC(=O)O/N=C(/C)N1N=C(C)CC1c1ccccc1OCc1ccc(F)cc1` (stereo not drawn) registered a half-maximal inhibitory concentration (IC50) above 314000 nM.
The value for `CC1=NN(/C(C)=N\OC(=O)c2cccnc2)C(c2ccc(OCc3ccc(F)cc3)cc2)C1` (stereo not drawn) was 7830 nM; that for `COC1CC(c2ccccc2)=NN1/C(C)=N\OC(=O)c1ccco1` (stereo not drawn) was 12200 nM.
With `COC1CC(c2ccccc2)=NN1/C(C)=N\OC(=O)c1ccc(C(F)(F)F)cc1` (stereo not drawn), the IC50 was 308 nM.
The value for `C/C(=N/OC(=O)c1ccco1)N1N=C(c2ccc(Cl)cc2Cl)CC1c1ccccc1F` (stereo not drawn) was 271 nM; that for `C=CC(=O)O/N=C(/C)N1N=C(c2ccc(Cl)cc2Cl)CC1c1ccccc1F` (stereo not drawn) was 1180 nM.
`C/C(=N/OC(=O)c1ccco1)N1N=C(c2ccc(Cl)cc2Cl)CC1c1ccc(C(F)(F)F)cc1` (stereo not drawn) displayed a half-maximal inhibitory concentration (IC50) of 979 nM.
The value for `CC1=NN2C(C1)c1ccccc1CC2(C)C` (stereo not drawn) was 1160 nM.

Values taken from BindingDB's records for doi:10.1016/j.bmc.2008.01.035 (Anhui University of Technology, 2008).
